According to patent publication US20230079439A1, “Compositions and Methods for Enhancing Beta Cell Maturation, Health and Function” (THE REGENTS OF THE UNIVERSITY OF CALIFORNIA, priority 2016, published 2023):

How the values were obtained:
isolated mouse islets = assay: GSIS test in isolated mouse islets; assay type: cell-based; details: 24 h; 2.5 or 16.7 mM glucose
Procedure: Mice (6 in total) were euthanized by cervical dislocation; the mouse torso was saturated with 70% ethanol. The abdominal cavity was opened completely from anus to diaphragm. The body and tail of the pancreas were removed and separated from fat and large vessels. The pancreas was washed once with HBSS solution and cut into small pieces of approximately 2×3 mm with a scissors. After an additional wash with HBSS solution, the pieces of pancreas were placed in two 50 ml Falcon tubes containing 4 ml of a freshly prepared solution of collagenase (2 mg/ml). After vigorous shaking at 37° C. for approximately 20 min, the collagenase digestion was interrupted by adding 45 ml of ice-chilled HBSS solution. The digested pancreatic tissue was spinned down at 330×g for 3 minutes. Supernatant was removed again and an additional 45 mL of “islet media” was added and spinned down at 330×g for 3 minutes. The histopaque was decanted and the tubes were inverted to drain on an absorbent paper towel for 1 min. The pellet was resuspended in 20 ml for each tube in cold 30% Ficoll solution. […]
Frozen islets medium or lysates were thawed on ice and diluted with water (a typical dilution for the lysate was 300× and for the supernatant—5×). […] The signal was determined by a SpectraMax M5 spectrophotometer. The concentrations of insulin in the samples were normalized by the total protein determined by the BCA assay.

INS-1E cells [1] = assay: Cell counting (trypan blue) / proliferation and cluster formation; assay type: cell-based, rat; details: 24 h
Procedure: FIG. 7, comprising FIG. 7A through FIG. 7G, depicts the evaluation of the biological activity of HSA-28P in INS-1E cells. FIG. 7A depicts dose-response analysis of the effect of HSA-28P on the rate of insulin secretion in INS-1E cells. The INS-1E cells were grown and trypsinized as described in Methods. Subsequently, cells were mixed with the indicated concentrations of HSA-28P (red columns), non-relevant peptide nanoparticles (NRPNP, green columns), and naked nanoparticles (NP, blue columns) and were seeded in 12-well plates. After 24 h the cells were taken to a GSIS in the presence of 2.5 mM (weak color bars) or 16.7 mM (strong color bars) glucose. FIG. 7B depicts time-course analysis of the effect of HSA-28P on the rate of insulin secretion in INS-1E cells. The INS-1E cells were prepared for the experiment as described above with 1.34 μM of both HSA-28P or NRPNP, and 0.76 μg/ml of NP. After incubation for the time indicated in the graph, the cells were taken to a GSIS as described in Methods. FIG. 7C depicts the measurement of insulin content. The RIA-assay was performed for INS-1E lysates. […] INS-1E cells were treated as described in Panel D. Cells were detached by trypsin and counted as described in Methods and then were visualized with a Cells Sense Live Imaging microscope. […]
Cells were detached by trypsin and colored by Trypan blue. Only uncolored cells were counted. […]

INS-1E cells [2] = assay: Glucose-stimulated insulin secretion (GSIS) in INS-1E cells; assay type: cell-based, rat; details: INS-1E cells; 2.5 mM or 16.7 mM glucose
Procedure: FIG. 3, comprising FIG. 3A through FIG. 3D, depicts the evaluation of the biological activity of HSA-112 in INS-1E cells. FIG. 3A depicts a dose-response analysis of the effect of HSA-112 on the rate of insulin secretion in INS-1E cells. The INS-1E cells were grown and treated with increasing doses of HSA-112 for 24 h, as described in Methods. Subsequently, cells were mixed with different concentrations of HSA-112, as indicated in the graph (red columns), PEG2000 (green columns), and free peptide (blue columns) and were seeded in 12-well plates. After 24 h the cells were taken to a GSIS in the presence of 2.5 mM (weak color bars) or 16.7 mM (strong color bars) glucose. FIG. 3B depicts the time-course analysis of the effect of HSA-112 on the rate of insulin secretion in INS-1E cells. The INS-1E cells were prepared for the experiment as described above with 50 μM of HSA-112, PEG2000, or free peptide. After incubation, as indicated in the graph, the cells were taken to a GSIS as described above. FIG. 3C depicts the cell protective effect of HSA-112 under oxidative stress conditions. Cells were prepared for the experiment as described in Methods. Trolox was used as a positive control at a concentration of 100 μM. The oxidative stress was induced in the tissue culture, as described in Methods. Standard MTT analysis (also described in Methods) was used for evaluating the effect of HSA-112 on cell viability. FIG. 3D depicts INS-1E cell proliferation. Cells were prepared for the experiment as described above. After 24 h the cells were colored by trypan blue and counted as described in Methods *p<0.05, n=6. MEAN±SE.
FIG. 7, comprising FIG. 7A through FIG. 7G, depicts the evaluation of the biological activity of HSA-28P in INS-1E cells. FIG. 7A depicts dose-response analysis of the effect of HSA-28P on the rate of insulin secretion in INS-1E cells. The INS-1E cells were grown and trypsinized as described in Methods. Subsequently, cells were mixed with the indicated concentrations of HSA-28P (red columns), non-relevant peptide nanoparticles (NRPNP, green columns), and naked nanoparticles (NP, blue columns) and were seeded in 12-well plates. After 24 h the cells were taken to a GSIS in the presence of 2.5 mM (weak color bars) or 16.7 mM (strong color bars) glucose. FIG. 7B depicts time-course analysis of the effect of HSA-28P on the rate of insulin secretion in INS-1E cells. The INS-1E cells were prepared for the experiment as described above with 1.34 μM of both HSA-28P or NRPNP, and 0.76 μg/ml of NP. After incubation for the time indicated in the graph, the cells were taken to a GSIS as described in Methods. FIG. 7C depicts the measurement of insulin content. The RIA-assay was performed for INS-1E lysates. FIG. 7D depicts the Effect of HSA-28P on the cells viability under oxidative stress conditions. INS-1E cells were incubated for 24 h with a medium supplemented with HSA-28P (3 μM), or HSA-28P1/2 (1.5 μM), or NPs covered by phantom random peptide (PPNP, 3 μM), or NP (0.76 μg/ml), or HSA-28 (3 μM) and trolox, as a positive antioxidant control (1 mM). After the incubation time, 50 mU/ml of glucose oxidase (GO) was added for an additional 1.15 h. Upon completion of the experiments, a standard MTT assay was conducted as described in Methods. Cell viability is presented as a percentage in comparison to non-treated cells. FIG. 7E depicts the effect of HSA-28P on the cell proliferation rate. Experiments were conducted on INS-1E cells that were seeded in 6-well plates. INS-1E cells were treated as described in Panel D. Cells were detached by trypsin and counted as described in Methods and then were visualized with a Cells Sense Live Imaging microscope. FIG. 7F depicts light microscope images of untreated cells. FIG. 7G depicts light microscope images of cells that were treated with HSA-28P. *p<0.05, n=3. MEAN±SE. […]

INS-1E cells [3] = assay: Insulin secretion of INS-1E cells after 5 h incubation with peptidomimetic agent; assay type: cell-based, rat; details: INS-1 β cells
Procedure: FIG. 22, comprising FIG. 22A through FIG. 22C, depicts experimental results of incubation of INS1E cells with peptidomimetic agent. A peptidomimetic agent was designed to mimic neuroligin's binding site for neurexin. Monomers and dimers had no effect on insulin secretion. Multiple dimers were conjugated to PEG-2000 to simulate clustering (reagent HSA-112). Dimers were also clustered on nanoparticles (HSA-637). FIG. 22A depicts INS-1E cells were incubated for 5 h with HSA-112 (blue columns) or HSA-637 (purple) at different concentrations or with vehicle alone (black), washed, and then tested for insulin secretion at 3 mM glucose (striped columns) or at 20 mM glucose (solid columns). […] FIG. 22B depicts a time course: insulin secretion was analyzed after the number of hours indicated following a 5 h incubation with 100 μM HSA-112 (blue), 500 nM HSA-637 (purple) or vehicle alone (black). Incubations were with 3 mM glucose (striped columns) or 20 mM glucose (solid columns). FIG. 22C depicts microscopy where INS-1E cells were incubated with HSA-637 conjugated to a fluorescent dye (Cy5, red) and then washed. Membranes were stained with Alexa Fluor 488 (green). For better visualization, microscopy was in hypotonic saline causing the INS-1E cells to swell and become more rounded.

Compound | effect on GSIS in isolated mouse islets (isolated mouse islets) | amount of cells / proliferation rate (INS-1E cells [1]) | effect on GSIS (INS-1E cells [2]) | effect on insulin secretion (INS-1E cells [3])
N=C(N)NCCC[C@H](N)C(=O)O [L-arginine] | significantly raised GSIS |  |  | 
QQGEFLNYD [HSA-28, short NL-2 mimetic peptide derived from the NL-4/NX-1 crystal complex] |  | has not shown any effect on the proliferation rate | did not increase the GSIS | had no effect
